We go through six molecules from PubChem BioAssay (NCI).

“And” between values parts separate entries of the source, which are not always exact repeats. Identical values can stand only once.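 Five compound concentrations were applied to cells in 96-well plates for 48 hours; endpoints were derived by simple linear interpolation of the resulting dose-response curve. The concentration for 50% growth inhibition is given as GI50. TGI: total growth inhibition.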

Common to all, as to test: inhibition of tumour cell growth, NCI panel, 48 h
The test system of test [1] is A549 NSCLC.
Test [2] concerns MCF7 breast.
Test [3] deals with OVCAR-4 ovarian.
The test system of test [4] is SF-539 CNS.
Test [5] concerns SK-MEL-2 melanoma.
Test [6] relates to SK-MEL-28 melanoma.
In test [7] the test system is SNB-19 CNS.
For test [8], the system named is SW-620 colon.
The subject of test [9] is U251 CNS.
Test [10] deals with UACC-62 melanoma.

Take `CNS(=O)(=O)Nc1nccc(Cc2c(C)c3ccc(Oc4ncccn4)cc3oc2=O)c1F`: the GI50 in test [1] was 0.674 µM and 1.08 µM; in test [2], 57 µM and > 10 µM; in [3], 4.33 µM and > 5.62 µM; in test [4], 61.5 µM and > 10 µM; in test [5] it was < 0.01 µM and 0.00879 µM; in [6], 0.0234 µM and 0.00549 µM. The GI50 was greater than 48.4 µM in test [7]; 0.0194 µM and 0.0159 µM in test [8]; 17.4 µM and > 10 µM in [9]; < 0.0105 µM and 0.00277 µM in test [10]. For the same molecule, the TGI in test [1], in test [2], in test [3], in test [4], in [5] and in [7] was greater than 100 µM in each case. Moreover, the values for the TGI in [8], in test [9] and in test [10] were greater than 100 µM, greater than 100 µM and 0.0941 µM, respectively.
In the case of `C=C(C)c1nc(Oc2ccccc2)nc(Oc2ccccc2)n1`, the TGI in test [1] turned out to be 38.8 µM; in test [2], 12.6 µM; in [3], 31.7 µM; in test [4], 14.5 µM; in [5], 9.51 µM; in test [6], 15.3 µM. In addition, the TGI in test [7] was found to be 18.5 µM; in test [8], 15.7 µM; in [9], 23.2 µM; in [10], 18.1 µM.
As for `COc1cc(/C=C/C(=O)c2nc3cc(F)ccc3nc2C)cc(OC)c1OC`, the GI50 was 7.37 µM in test [1]; 2.3 µM in test [2]; greater than 40.7 µM in test [3]; greater than 100 µM in test [4]; 34.5 µM in test [5]; 7.91 µM in test [6]. Also, the GI50 in test [7] was greater than 51.1 µM; in test [8], 5.34 µM; in [9], 3.54 µM; in [10], 5.57 µM. Besides, the TGI in test [1] was greater than 100 µM; in test [2] it was greater than 100 µM; in [3], greater than 100 µM; in [4] it was greater than 100 µM; in test [5] it was greater than 100 µM; in [6] it was greater than 60.3 µM. For the same molecule, the TGI in test [7], in [8], in [9] and in test [10] was greater than 100 µM in each case.
`CN(C)[C@@H]1C(=O)C(C(=O)NCc2nc3[nH]cnc(=S)c3[nH]2)=C(O)[C@@]2(O)C(=O)C3=C(O)c4c(O)cccc4[C@@](C)(O)[C@H]3C[C@@H]12`: the GI50 in [1] was greater than 100 µM; in test [2], 1.57 µM; in [3], 1.13 µM; in [4], 3.67 µM; in test [5], greater than 100 µM; in [6], greater than 100 µM. The GI50 in test [7] was greater than 100 µM; in [8] it was 17 µM; in [9] it was greater than 100 µM; in [10] it was 2.91 µM. Further, the TGI in test [1], in test [2], in test [3], in [4], in test [5] and in test [6] was greater than 100 µM in each case. The TGI in test [7], in test [8], in test [9] and in [10] was greater than 100 µM in each case.
In the case of `COc1cc2c3c(n(CCCN)c(=O)c2cc1OC)-c1ccc(N)cc1C3=O`, the GI50 was 12.9 µM in test [1]; 1.66 µM in test [2]; 1.57 µM in test [3]; 0.302 µM in [4]; 7.77 µM in test [5]; 2.16 µM in test [6]. Also, the GI50 is 1.27 µM in [7], 0.607 µM in test [8], 0.575 µM in [9] and 1.08 µM in test [10]. Moreover, the TGI is 44.3 µM in test [1]; greater than 38.2 µM in test [2]; 11.6 µM in test [3]; 1.61 µM in test [4]; 29.8 µM in [5]; 14.7 µM in test [6]. The TGI in test [7] worked out at 16.3 µM; in test [8], 11.7 µM; in [9], 6.84 µM; in test [10], 10.7 µM.
In the case of `CCCCCCCCCCN=C(N)c1ccc(N2CCN(c3ccc(C(N)=NCCCCCCCCCC)cc3)CC2)cc1`, the GI50 in [1] was 3.32 µM; in test [2], 1.55 µM; in test [3], 6.5 µM; in test [4], 1.72 µM; in test [5] it was 7.74 µM; in test [6] it was 4.76 µM. The GI50 was 3.02 µM in [7], 2.65 µM in test [8], 2.44 µM in test [9] and 6.67 µM in [10]. Moreover, the TGI in [1] was greater than 50 µM; in test [2], greater than 50 µM; in test [3], greater than 50 µM; in test [4] it was 6.76 µM; in test [5] it was greater than 50 µM; in test [6], 36 µM. The TGI in test [7] is 19.1 µM; in [8], greater than 50 µM; in [9], greater than 50 µM; in test [10] it was 38.1 µM.
